US20250255867A1 (Kadmon Corporation, LLC, priority 2022, published 2025)

CC(C)NC(=O)COc1cccc(-c2nc(Nc3ccc4[nH]ncc4c3)c3ccccc3n2)c1 [Belumosudil, 2-{3-[4-(1H-indazol-5-ylamino)-2-quinazolinyl]phenoxy}-N-(propan-2-yl) acetamide]
(23.53%): Blood alkaline phosphatase increased: Affected/At Risk (%) (Cohort 1 200 mg QD)
8: Aspartate aminotransferase increased: # Events (Cohort 1 200 mg QD)
(11.76%): Abdominal pain: Affected/At Risk (%) (Cohort 1 200 mg QD) | Contusion: Affected/At Risk (%) (Cohort 1 200 mg QD) | Decreased appetite: Affected/At Risk (%) (Cohort 1 200 mg QD) | Dehydration: Affected/At Risk (%) (Cohort 1 200 mg QD)
0/17: Actinic keratosis: Affected/At Risk (Cohort 1 200 mg QD) | Asthenia: Affected/At Risk (Cohort 1 200 mg QD) | Back pain: Affected/At Risk (Cohort 1 200 mg QD) | Balance disorder: Affected/At Risk (Cohort 1 200 mg QD) | Basal cell carcinoma: Affected/At Risk (Cohort 1 200 mg QD) | Blister: Affected/At Risk (Cohort 1 200 mg QD) | Blood chloride decreased: Affected/At Risk (Cohort 1 200 mg QD) | Blood creatine increased: Affected/At Risk (Cohort 1 200 mg QD) | Bronchial secretion retention: Affected/At Risk (Cohort 1 200 mg QD) | Conjunctival haemorrhage: Affected/At Risk (Cohort 1 200 mg QD) | Conjunctivitis: Affected/At Risk (Cohort 1 200 mg QD) | Contrast media allergy: Affected/At Risk (Cohort 1 200 mg QD) | Corneal infection: Affected/At Risk (Cohort 1 200 mg QD) | Depression: Affected/At Risk (Cohort 1 200 mg QD)
(29.41%): Anaemia: Affected/At Risk (%) (Cohort 1 200 mg QD) | Aspartate aminotransferase increased: Affected/At Risk (%) (Cohort 1 200 mg QD)
(0%): Actinic keratosis: Affected/At Risk (%) (Cohort 1 200 mg QD) | Asthenia: Affected/At Risk (%) (Cohort 1 200 mg QD) | Back pain: Affected/At Risk (%) (Cohort 1 200 mg QD) | Balance disorder: Affected/At Risk (%) (Cohort 1 200 mg QD) | Basal cell carcinoma: Affected/At Risk (%) (Cohort 1 200 mg QD) | Blister: Affected/At Risk (%) (Cohort 1 200 mg QD) | Blood chloride decreased: Affected/At Risk (%) (Cohort 1 200 mg QD) | Blood creatine increased: Affected/At Risk (%) (Cohort 1 200 mg QD) | Bronchial secretion retention: Affected/At Risk (%) (Cohort 1 200 mg QD) | Conjunctival haemorrhage: Affected/At Risk (%) (Cohort 1 200 mg QD) | Conjunctivitis: Affected/At Risk (%) (Cohort 1 200 mg QD) | Contrast media allergy: Affected/At Risk (%) (Cohort 1 200 mg QD) | Corneal infection: Affected/At Risk (%) (Cohort 1 200 mg QD) | Depression: Affected/At Risk (%) (Cohort 1 200 mg QD)
4: Acute kidney injury: # Events (Cohort 1 200 mg QD) | Decreased appetite: # Events (Cohort 1 200 mg QD)
6: Blood alkaline phosphatase increased: # Events (Cohort 1 200 mg QD)
6/17: Alanine aminotransferase increased: Affected/At Risk (Cohort 1 200 mg QD)
12: Alanine aminotransferase increased: # Events (Cohort 1 200 mg QD)
77%: Patients with relative dose intensity >95% (Cohort 1)
(35.29%): Alanine aminotransferase increased: Affected/At Risk (%) (Cohort 1 200 mg QD)
1/17: Abdominal distension: Affected/At Risk (Cohort 1 200 mg QD) | Abdominal pain upper: Affected/At Risk (Cohort 1 200 mg QD) | Acute kidney injury: Affected/At Risk (Cohort 1 200 mg QD) | Acute respiratory distress syndrome: Affected/At Risk (Cohort 1 200 mg QD) | Adrenal insufficiency: Affected/At Risk (Cohort 1 200 mg QD) | Anal incontinence: Affected/At Risk (Cohort 1 200 mg QD) | Anxiety: Affected/At Risk (Cohort 1 200 mg QD) | Arthralgia: Affected/At Risk (Cohort 1 200 mg QD) | Atelectasis: Affected/At Risk (Cohort 1 200 mg QD) | Benign prostatic hyperplasia: Affected/At Risk (Cohort 1 200 mg QD) | Blepharitis: Affected/At Risk (Cohort 1 200 mg QD) | Blood cholesterol increased: Affected/At Risk (Cohort 1 200 mg QD) | Blood creatine phosphokinase increased: Affected/At Risk (Cohort 1 200 mg QD) | Blood creatinine increased: Affected/At Risk (Cohort 1 200 mg QD) | Blood loss anaemia: Affected/At Risk (Cohort 1 200 mg QD) | Bronchitis: Affected/At Risk (Cohort 1 200 mg QD) | Bronchoscopy: Affected/At Risk (Cohort 1 200 mg QD) | Catheter site haemorrhage: Affected/At Risk (Cohort 1 200 mg QD) | Chills: Affected/At Risk (Cohort 1 200 mg QD) | Chronic kidney disease: Affected/At Risk (Cohort 1 200 mg QD) | Constipation: Affected/At Risk (Cohort 1 200 mg QD) | Corneal abrasion: Affected/At Risk (Cohort 1 200 mg QD) | Cough: Affected/At Risk (Cohort 1 200 mg QD)
0: Actinic keratosis: # Events (Cohort 1 200 mg QD) | Asthenia: # Events (Cohort 1 200 mg QD) | Back pain: # Events (Cohort 1 200 mg QD) | Balance disorder: # Events (Cohort 1 200 mg QD) | Basal cell carcinoma: # Events (Cohort 1 200 mg QD) | Blister: # Events (Cohort 1 200 mg QD) | Blood chloride decreased: # Events (Cohort 1 200 mg QD) | Blood creatine increased: # Events (Cohort 1 200 mg QD) | Bronchial secretion retention: # Events (Cohort 1 200 mg QD) | Conjunctival haemorrhage: # Events (Cohort 1 200 mg QD) | Conjunctivitis: # Events (Cohort 1 200 mg QD) | Contrast media allergy: # Events (Cohort 1 200 mg QD) | Corneal infection: # Events (Cohort 1 200 mg QD) | Depression: # Events (Cohort 1 200 mg QD)
14: Anaemia: # Events (Cohort 1 200 mg QD)
2/17: Abdominal pain: Affected/At Risk (Cohort 1 200 mg QD) | Contusion: Affected/At Risk (Cohort 1 200 mg QD) | Decreased appetite: Affected/At Risk (Cohort 1 200 mg QD) | Dehydration: Affected/At Risk (Cohort 1 200 mg QD)
5/17: Anaemia: Affected/At Risk (Cohort 1 200 mg QD) | Aspartate aminotransferase increased: Affected/At Risk (Cohort 1 200 mg QD)
2: Abdominal pain: # Events (Cohort 1 200 mg QD) | Adrenal insufficiency: # Events (Cohort 1 200 mg QD) | Anal incontinence: # Events (Cohort 1 200 mg QD) | Blood cholesterol increased: # Events (Cohort 1 200 mg QD) | Contusion: # Events (Cohort 1 200 mg QD) | Dehydration: # Events (Cohort 1 200 mg QD)
(5.88%): Abdominal distension: Affected/At Risk (%) (Cohort 1 200 mg QD) | Abdominal pain upper: Affected/At Risk (%) (Cohort 1 200 mg QD) | Acute kidney injury: Affected/At Risk (%) (Cohort 1 200 mg QD) | Acute respiratory distress syndrome: Affected/At Risk (%) (Cohort 1 200 mg QD) | Adrenal insufficiency: Affected/At Risk (%) (Cohort 1 200 mg QD) | Anal incontinence: Affected/At Risk (%) (Cohort 1 200 mg QD) | Anxiety: Affected/At Risk (%) (Cohort 1 200 mg QD) | Arthralgia: Affected/At Risk (%) (Cohort 1 200 mg QD) | Atelectasis: Affected/At Risk (%) (Cohort 1 200 mg QD) | Benign prostatic hyperplasia: Affected/At Risk (%) (Cohort 1 200 mg QD) | Blepharitis: Affected/At Risk (%) (Cohort 1 200 mg QD) | Blood cholesterol increased: Affected/At Risk (%) (Cohort 1 200 mg QD) | Blood creatine phosphokinase increased: Affected/At Risk (%) (Cohort 1 200 mg QD) | Blood creatinine increased: Affected/At Risk (%) (Cohort 1 200 mg QD) | Blood loss anaemia: Affected/At Risk (%) (Cohort 1 200 mg QD) | Bronchitis: Affected/At Risk (%) (Cohort 1 200 mg QD) | Bronchoscopy: Affected/At Risk (%) (Cohort 1 200 mg QD) | Catheter site haemorrhage: Affected/At Risk (%) (Cohort 1 200 mg QD) | Chills: Affected/At Risk (%) (Cohort 1 200 mg QD) | Chronic kidney disease: Affected/At Risk (%) (Cohort 1 200 mg QD) | Constipation: Affected/At Risk (%) (Cohort 1 200 mg QD) | Corneal abrasion: Affected/At Risk (%) (Cohort 1 200 mg QD) | Cough: Affected/At Risk (%) (Cohort 1 200 mg QD)
1: Abdominal distension: # Events (Cohort 1 200 mg QD) | Abdominal pain upper: # Events (Cohort 1 200 mg QD) | Acute respiratory distress syndrome: # Events (Cohort 1 200 mg QD) | Anxiety: # Events (Cohort 1 200 mg QD) | Arthralgia: # Events (Cohort 1 200 mg QD) | Atelectasis: # Events (Cohort 1 200 mg QD) | Benign prostatic hyperplasia: # Events (Cohort 1 200 mg QD) | Blepharitis: # Events (Cohort 1 200 mg QD) | Blood creatine phosphokinase increased: # Events (Cohort 1 200 mg QD) | Blood creatinine increased: # Events (Cohort 1 200 mg QD) | Blood loss anaemia: # Events (Cohort 1 200 mg QD) | Bronchitis: # Events (Cohort 1 200 mg QD) | Bronchoscopy: # Events (Cohort 1 200 mg QD) | Catheter site haemorrhage: # Events (Cohort 1 200 mg QD) | Chills: # Events (Cohort 1 200 mg QD) | Chronic kidney disease: # Events (Cohort 1 200 mg QD) | Constipation: # Events (Cohort 1 200 mg QD) | Corneal abrasion: # Events (Cohort 1 200 mg QD) | Cough: # Events (Cohort 1 200 mg QD)
9: Diarrhoea: # Events (Cohort 1 200 mg QD)
4/17: Blood alkaline phosphatase increased: Affected/At Risk (Cohort 1 200 mg QD)
